Measured values reported in US20110191897A1, “Plants Tolerant to HPPD Inhibitor Herbicides” (Bayer CropScience AG, priority 2009, published 2011).

Experiments:
[1] = system: tobacco calli containing HPPD SEQ ID No. 7 (Blepharisma japonicum); test: Rooting of transformed tobacco calli on tembotrione media; assay type: cell-based, Nicotiana tabacum; settings: 6 to 12 weeks
Protocol: The leaf disks were co-cultivated for 2 days with Agrobacterium tumefaciens cells containing either the binary vector FMP37ebv or AtHPPDbv. Then the leaf disks were transferred to a media allowing the regeneration of shoots for 6 weeks on MS (Musharige and Skoog, (1962), Physiol Plant 15(3): 473-497) media supplemented with BAP (1 mg/mL; Benzylaminopurine), carbenicillin (250 mg/mL), cefotaxine (250 mg/mL), kanamycin (75 mg/mL) and tembotrione (10^−6 M)
Regenerated calli were transferred on media to induce the development of roots for 6 to 12 weeks: MS (½), supplemented with carbenicillin (250 mg/mL), cefotaxine (250 mg/mL), kanamycin (75 mg/mL), and tembotrione (10^−6 M).
Regenerated shoot calli from a cell transformed with a nucleic acid sequence encoding an HPPD comprising SEQ ID No. 11 (Arabidopsis thaliana) or SEQ ID No. 7 (Blepharisma japonicum) were transferred to a media inducing rot growth which media was further supplemented with the HPPD inhibitor tembotrione for 6 to 12 weeks.

[2] = system: T0 tobacco plants expressing the FMP37 HPPD (FMP37t); test: Greenhouse response of T0 tobacco plants to tembotrione; assay type: in vivo, Nicotiana tabacum; settings: 100 g AI/ha, two weeks after treatment
Description: As an example, rooted plants containing the T-DNA PromCaMV35S-OTP-HIS6—FMP37t-TerCaMV35S, will be transferred to the greenhouse under standard growth conditions. Following a period of acclimation of two weeks, the T0 plants will be treated with a mixture containing 100 g tembotrione/ha prepared from a WP20 (wettable powder 20%) formulation supplemented with ammonium sulfate and methyl ester raps oil. Two weeks after the treatment, the symptoms due to the application of the herbicides will be evaluated. The plants are classified in four categories. The treated plants evaluated as “0” are looking like the untreated tobacco plants. The plants evaluated as “1” display temporary light bleaching phenotype due to the application of the herbicides. The plants evaluated as “2” display permanent light to strong bleaching symptoms. Finally the plants evaluated as “3” are looking like wild type tobacco plants submitted to the same treatment.

[3] = system: rice shoots transformed with FMP37e; test: Bleaching of transformed rice shoots on MS/2 with tembotrione; assay type: in vivo; settings: 2 weeks
Protocol: Rice transformation is achieved using methods well known in the art. Briefly, the Agrobacterium tumefaciens mediated transformation of rice was performed using immature embryos, from the restorer line 6G4317. Briefly, panicles from donor plants were harvested 8-12 days after pollination. The lemma of the immature seed was removed. Seeds were thereafter sterilized using a NaOCl based solution and Tween. The seeds were preinduced with acetylsalicylic acid. Agrobacterium tumefaciens cells were then co-cultivated with the preinduced seeds in presence of acetosyringone for 4 days at 24° C. in the dark. Thereafter, coleoptile from embryos were removed and washed, then put on a media supplemented with phosphinothricin for 3 weeks at 28° C. under a photoperiod rhythm of 16 hours. Then the growing calli were cut off from the embryos, and transferred to fresh media containing triacillin, phosphinothricin, L-proline and copper (II) sulfate.
For each callusline and per Tembotrione concentration, 3 shoots, and randomly isolated from different callus pieces, were transferred to MS/2 with Tembotrione. As a general rule, transfer of the shoots from regeneration medium to MS/2 occurred 9 weeks after calli had been put on regeneration medium.
Cultures were incubated at 26.5° C. (16 hrs. photoperiod) and evaluation of symptoms occurred 2 weeks later.
New developing leaves of the shoots transferred have been scored on the basis of bleaching and categorized in 3 groups:
a) no bleaching b) intermediate bleaching c) complete bleaching
Within the category ‘intermediate bleaching’ a distinction has been made between shoots having new leaves showing only very little bleaching symptoms and thus tending to green leaves, and shoots with new leaves almost completely bleached.

Structure (SMILES): CS(=O)(=O)c1ccc(C(=O)C2C(=O)CCCC2=O)c(Cl)c1COCC(F)(F)F [Tembotrione, 2-[2-chloro-4-(methylsulfonyl)-3-[(2,2,2,-tri-fluoroethoxy)methyl]benzoyl]-1,3-cyclo-hexanedione]
- % Elongation & rooting on 10^−6M tembotrione [1]: 65%
- number of plants in category 0 (looking like the untreated tobacco plants) [2]: 6
- number of plants in category 2 (permanent light to strong bleaching) [2]: 13
- number of plants in category 3 (like treated wild type tobacco plants) [2]: 7
- N° of shoots completely bleached ([3]; 1 μM): 17
- N° of shoots with intermediate bleaching ([3]; 1 μM): 24
- N° of shoots completely bleached ([3]; 5 μM): 43
- N° of shoots with intermediate bleaching ([3]; 5 μM): 17
